Consider 10 compounds from ChEMBL document CHEMBL1129083, “The synthesis of 5-azido-UTP and UDP-pyridoxal and their effect on the carbamoyl-phosphate synthetase (CPS II) in the mammalian multienzyme polypeptide CAD” (Bioorg Med Chem Lett, 1996).

Assay [1] concerns the target Multifunctional protein CAD (Homo sapiens) (UniProt P27708). The assay is described as follows: Compound was evaluated for its effect on the activity of mammalian Carbamoyl-phosphate synthetase in the multienzyme polypeptide CAD at a concentration of 1.6mM.
For assay [2] the target is unchanged. Briefly: Compound was evaluated for its effect on the activity of mammalian Carbamoyl-phosphate synthetase in the multienzyme polypeptide CAD at a concentration of 0.4mM.
For assay [3] the target is unchanged. The assay is described as follows: Compound was evaluated for its effect on the activity of mammalian Carbamoyl-phosphate synthetase in the multienzyme polypeptide CAD at a concentration of 1.2 mM.
The target is the same in assay [4]. The assay is described as follows: Compound was evaluated for its effect on the activity of mammalian Carbamoyl-phosphate synthetase in the multienzyme polypeptide CAD at a concentration of 1.2mM.
Assay [5] shares this target. Briefly: Compound was evaluated for its effect on the activity of mammalian Carbamoyl-phosphate synthetase in the multienzyme polypeptide CAD at a concentration of 4mM.

Sequence of Multifunctional protein CAD (Homo sapiens) (P27708 whole entry): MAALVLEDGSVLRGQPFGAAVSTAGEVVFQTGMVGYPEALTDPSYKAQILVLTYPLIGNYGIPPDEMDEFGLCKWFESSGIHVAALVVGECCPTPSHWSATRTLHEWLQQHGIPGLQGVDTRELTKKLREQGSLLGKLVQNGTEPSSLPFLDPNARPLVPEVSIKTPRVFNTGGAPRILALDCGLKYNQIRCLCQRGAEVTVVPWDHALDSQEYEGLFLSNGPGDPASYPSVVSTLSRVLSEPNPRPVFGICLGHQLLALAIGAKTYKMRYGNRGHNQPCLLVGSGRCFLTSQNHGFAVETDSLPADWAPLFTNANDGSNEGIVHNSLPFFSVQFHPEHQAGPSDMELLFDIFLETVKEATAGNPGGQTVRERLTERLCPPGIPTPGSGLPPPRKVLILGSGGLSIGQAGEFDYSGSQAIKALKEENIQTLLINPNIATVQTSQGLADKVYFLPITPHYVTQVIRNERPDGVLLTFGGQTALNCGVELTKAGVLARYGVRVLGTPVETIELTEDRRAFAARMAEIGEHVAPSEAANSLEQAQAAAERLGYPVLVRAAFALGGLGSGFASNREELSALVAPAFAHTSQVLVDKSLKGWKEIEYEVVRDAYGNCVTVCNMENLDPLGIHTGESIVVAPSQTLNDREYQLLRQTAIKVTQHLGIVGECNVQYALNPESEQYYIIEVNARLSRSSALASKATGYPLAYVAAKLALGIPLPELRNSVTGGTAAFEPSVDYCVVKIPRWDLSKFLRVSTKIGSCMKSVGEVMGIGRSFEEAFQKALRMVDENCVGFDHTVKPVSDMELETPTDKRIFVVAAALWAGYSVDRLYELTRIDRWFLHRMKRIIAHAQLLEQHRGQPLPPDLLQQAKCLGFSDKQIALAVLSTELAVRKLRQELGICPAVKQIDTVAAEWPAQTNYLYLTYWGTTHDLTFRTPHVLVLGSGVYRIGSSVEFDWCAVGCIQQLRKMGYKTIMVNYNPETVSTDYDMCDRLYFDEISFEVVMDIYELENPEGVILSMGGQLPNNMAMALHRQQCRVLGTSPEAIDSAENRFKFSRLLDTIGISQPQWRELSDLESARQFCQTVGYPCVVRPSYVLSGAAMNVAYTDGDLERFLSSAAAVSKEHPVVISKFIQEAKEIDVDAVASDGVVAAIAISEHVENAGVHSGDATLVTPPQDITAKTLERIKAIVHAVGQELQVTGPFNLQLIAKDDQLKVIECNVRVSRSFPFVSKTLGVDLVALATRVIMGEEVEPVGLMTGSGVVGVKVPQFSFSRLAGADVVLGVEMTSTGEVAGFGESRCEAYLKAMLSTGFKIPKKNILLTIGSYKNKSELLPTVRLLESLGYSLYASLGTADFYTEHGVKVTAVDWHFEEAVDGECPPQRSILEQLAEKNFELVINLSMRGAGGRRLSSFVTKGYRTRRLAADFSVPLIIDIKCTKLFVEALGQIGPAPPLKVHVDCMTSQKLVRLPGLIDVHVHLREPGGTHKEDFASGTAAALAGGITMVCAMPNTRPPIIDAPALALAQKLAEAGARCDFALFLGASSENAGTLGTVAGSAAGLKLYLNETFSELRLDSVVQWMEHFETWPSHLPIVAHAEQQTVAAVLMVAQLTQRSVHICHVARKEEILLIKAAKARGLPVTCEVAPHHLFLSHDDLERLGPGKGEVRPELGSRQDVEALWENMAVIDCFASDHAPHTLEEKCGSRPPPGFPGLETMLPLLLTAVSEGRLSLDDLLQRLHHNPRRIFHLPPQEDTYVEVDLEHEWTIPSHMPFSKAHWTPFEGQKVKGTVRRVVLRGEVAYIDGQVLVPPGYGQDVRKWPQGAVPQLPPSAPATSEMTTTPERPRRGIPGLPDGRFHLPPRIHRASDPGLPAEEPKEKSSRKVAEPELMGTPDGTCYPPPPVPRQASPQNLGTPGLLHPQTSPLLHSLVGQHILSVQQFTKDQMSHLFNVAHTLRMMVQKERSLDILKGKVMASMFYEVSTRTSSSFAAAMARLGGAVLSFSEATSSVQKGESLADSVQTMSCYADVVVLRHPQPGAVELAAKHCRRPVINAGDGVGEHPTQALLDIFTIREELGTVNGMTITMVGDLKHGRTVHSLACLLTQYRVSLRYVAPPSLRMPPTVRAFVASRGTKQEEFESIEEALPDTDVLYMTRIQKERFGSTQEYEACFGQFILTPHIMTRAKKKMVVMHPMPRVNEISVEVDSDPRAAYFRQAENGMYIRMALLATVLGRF

On to `O=P(O)(O)OC[C@H]1O[C@H](O)C(O)C1O` (single isomer, unassigned), for which the Activity in assay [1] came to 100%. Take `Cc1ncc(COP(=O)(O)OP(=O)(O)OC[C@H]2OC(n3ccc(=O)[nH]c3=O)[C@H](O)[C@@H]2O)c(C=O)c1O` (stereo not given in full): the Activity in assay [2] came to 120%. Compound `[N-]=[N+]=Nc1cn([C@@H]2O[C@H](COP(=O)(O)OP(=O)(O)OP(=O)(O)O)[C@@H](O)[C@H]2O)c(=O)[nH]c1=O` came in with an Activity in assay [3] of 48%. With `Cc1ncc(CO)c(C=O)c1O`, the Activity in assay [4] amounted to 73%. The compound `O=P(O)(O)OC[C@H]1OC(OP(=O)(O)OP(=O)(O)O)[C@H](O)[C@@H]1O` (stereo not given in full) showed an Activity in assay [2] of 320%. In turn, `Nc1ncnc2c1ncn2[C@@H]1O[C@H](COP(=O)(O)OP(=O)(O)OP(=O)(O)O)[C@@H](O)[C@H]1O` returned an Activity in assay [5] of 100%.

The compound `O=c1ccn([C@@H]2O[C@H](CO)C(O)C2O)c(=O)[nH]1` (single isomer, unassigned) gave an Activity in assay [1] of 100%.

`O=c1ccn([C@@H]2O[C@H](COP(=O)(O)OP(=O)(O)O)[C@@H](O)[C@H]2O)c(=O)[nH]1` came in with an Activity in assay [4] of 54%. As for `Cc1ncc(COP(=O)(O)O)c(C=O)c1O`, the Activity in assay [2] worked out at 170%. On to `O=c1ccn([C@@H]2O[C@H](COP(=O)(O)OP(=O)(O)OP(=O)(O)O)[C@@H](O)[C@H]2O)c(=O)[nH]1`, for which, in assay [4], the Activity came to 18%.
